In one series the test system is Trypanosoma cruzi. The experiment in a line: Antitrypanosomal activity against Trypanosoma cruzi epimastigotes assessed as parasite growth inhibition measured after 24 hrs by CellTiter-glo luminescence assay. Format: functional, organism-based. (In general: In ATP-based viability assays light output follows the ATP content of the culture.)
Another series has as its system Bacillus subtilis. The experiment in a line: Antibacterial activity against Bacillus subtilis assessed as inhibition of bacterial growth incubated for 48 hrs by liquid microculture method. Format: functional.
A further series relates to Kocuria rhizophila. The experiment in a line: Antibacterial activity against Kocuria rhizophila assessed as inhibition of bacterial growth incubated for 48 hrs by liquid microculture method. Type of series: functional.
The nature of series [1]: Antimigratory activity against human EC17 cells assessed as inhibition of cell migration incubated for 12 hrs by microscopic analysis. Type of series: functional, cell-based. The following applies: EC17, 12 h.
Series [2] is described as follows: Cytotoxicity against human EC17 cells at 0.18 to 18 uM incubated for 12 hrs. Type of series: toxicity, cell-based. The following applies: ec17, 12 h, dose 0.18-18 µM.
A short description of series [3]: Cytotoxicity against rat 3Y1 cells assessed as cell growth inhibition incubated for 84 hrs by MTT assay. Format: toxicity, cell-based.
A short description of series [4]: Selectivity ratio of GI50 for cytotoxicity against rat 3Y1 cells to IC50 for antitrypanosomal activity against Trypanosoma cruzi epimastigotes. Format: toxicity, cell-based.

Values after ≈ are worked out from the molar mass of the structure shown.

These results are taken from ChEMBL document CHEMBL5120902, “Phytohabitols A-C, δ-Lactone-Terminated Polyketides from an Actinomycete of the Genus Phytohabitans” (J Nat Prod, 2022).

The term IC50 denotes the midpoint of a concentration-inhibition curve. For orientation: MIC means the lowest concentration found to suppress growth. As a reminder, the GI50 is the concentration that inhibits growth by half.

Consider `O=C(Cn1ccnc1[N+](=O)[O-])NCc1ccccc1` [BENZNIDAZOLE], for which the IC50 in the series on Trypanosoma cruzi was found to be 16 µM.
As to `C/C=C(\C)[C@@H](O)[C@H](C)[C@H](O)C/C=C(C)/C=C(\C)C/C(C)=C/C/C=C(\C)[C@@H](O)[C@@H](C)[C@H]1CC[C@H](CCCC)C(=O)O1`, the MIC with Bacillus subtilis and with Kocuria rhizophila was 100 µg/mL (≈ 179 µM) throughout. The values for the IC50 (in series [1]; with Trypanosoma cruzi) were 15 µM and 12 µM, respectively. The Activity entry in series [2] is listed as “Non-Toxic”. Further, the GI50 at 84 h in series [3] stood at 32 µM. Also, in series [4], the selectivity ratio came out at 2.8.
Take `C/C=C(\C)[C@@H](O)[C@H](C)[C@H](O)C/C=C(C)/C=C(\C)C/C(C)=C/C/C=C(\C)[C@@H](O)[C@@H](C)[C@H]1CC[C@H](CCC)C(=O)O1`: the MIC in the series with Bacillus subtilis and in the series with Kocuria rhizophila was 100 µg/mL (≈ 184 µM) in each case. Moreover, the IC50 came to 11 µM in series [1] and 6.4 µM with Trypanosoma cruzi. In addition, in series [2], the Activity entry is reported as “Non-Toxic”. Besides, in series [3], the GI50 at 84 h was determined as 31 µM. Further, the selectivity ratio in series [4] came to 4.9.
With `C/C=C(\C)[C@@H](O)[C@H](C)[C@H](O)C/C=C(C)/C=C(\C)C/C(C)=C/C/C=C(\C)[C@@H](O)[C@@H](C)[C@H]1CC[C@H](CC)C(=O)O1`, the MIC in the series on Bacillus subtilis and in the series on Kocuria rhizophila was 100 µg/mL (≈ 188 µM) each time. For the same molecule, the IC50 amounted to 8.3 µM in series [1] and 18 µM with Trypanosoma cruzi. Moreover, the Activity result in series [2] is “Non-Toxic”. For the same molecule, the GI50 at 84 h in series [3] turned out to be 3.8 µM. Moreover, the selectivity ratio in series [4] worked out at 0.22.
